Experimental data from publication PMC10600239, “Selective MCL-1 inhibitor ABBV-467 is efficacious in tumor models but is associated with cardiac troponin increases in patients” (Communications Medicine, 2023).

Assays:
[1] = Anesthetized dog cardiovascular safety pharmacology; assay type: in vivo; conditions: anesthetized beagle, IV 1, 3 and 10 mg/kg
Text: (§1) ABBV-467 was profiled in safety pharmacology studies in anesthetized (non-Good Laboratory Practice [GLP]) and telemetry-instrumented conscious (GLP) dog cardiovascular assays (Supplementary Table S6).
(§2) Supplementary Table S6: Maj or findings in safety pharmac ology cardiovascular studies c onduc ted with ABBV- […]
(§3) Species/Strain Route of Concentrations Sex and N Results
(§4) Administration or Doses per Group […]
(§5) Anesthetized IV 1, 3, and Male No effects up to a plasma concentration dog 10 m g/ k gN=4 o f 16 .83 µg/mL on […]
(§6) aged 8-12 months • Heart rate
(§7) • Systemic vascular resistance
(§8) At 67 .23 mg/m L, an increase in heart rate and decrease in systemic vascular
(§9) Conscious IV 0, 0.3, 1, and Male No effects on blood pressure, heart dog 3 mg/kg N=5–6a rate, or ECG parameters at any dose beagle (plasma concentration of 6.53 µg/mL at (aged 8-12 months 3-m g/ k g do s e )
(§10) ECG, electrocardiogram; IC50, half maximal inhibitory concentration; IV, intravenous; QTcV, QT interval correct ed accor ding to the Van de Water formula. No animals or data were excl uded from analysis . […] Healthy dogs, as determined by veterinary physical examination and clinical pathology, were selected for study based on availability without explicit randomization. […] Power analysis has shown a group size of 6 can statistically detect an approximately 20 % alteration in measured parameters w ith α =0.0 5. […]

[2] = 4-week (5-dose) IV infusion toxicity study with 4-week recovery
Method: (§16) range-finding studies, and 4-we ek (5-dose) with recovery GLP studies in rats and dogs. For all studies, test item was
(§17) administered once weekly by 30 -minute IV infusion. Standard GLP endpoints were assessed including in- life (body weights,
(§18) clinical observations, eye exams), electro cardiograms (dog s only), clinical pathology (hematology, clinical chemistry, and
(§19) coagulation) and anatomic pathology (macroscopic and mic roscopic observations and organ weights).
(§20) Study design was generally in compliance with FDA Redbook
(§21) Guidance IV.C. 3.a. and IV.C.3. b. sections on short-term toxicity studies with rodents and non- rodents, respectively (viz.
(§22) Studies were appr oved by the animal use committee of Charles River Laboratories, Mattawan, MI. No animals or
(§23) data were excluded from analysis. Healthy dogs, as determined by veterinary physical examination and clinical pathology,
(§24) were randomized between dose groups using laboratory information management softw are.

[3] = as above; conditions: rats
Method: as §16, §17, §18, §19, §20, §21, §22, §23, §24

Kv11.1 (hERG) = Kv11.1 (hERG) (Homo sapiens, UniProt Q12809); test: in vitro; conditions: CHO cells expressing human Kv11.1 (hERG)
mouse Mcl1 = target: T1, mouse Mcl1 (Mus musculus, UniProt P97287); test: TR-FRET binding assay, MCL-1 orthologs
T1 construct: made in house; host or cells: E. coli BL21(DE3)-T1R
Method: (§11) Binding affinities for MCL-1, BCL-2, BCL-XL, BCL-W, and BCL2-A1 were determined using a time-resolved fluorescence resonance energy transfer (FRET) assay. Test compounds were serially diluted in DMSO starting at […] (20× starting concentration; 100% DMSO followed by a 1:10 dilution of the compound DMSO plate into assay buffer); 10 µL of the compound in 10% DMSO was then transferred into a 384-well plate (low-volume Corning #3673 assay plate). Glutathione S-transferase (GST)-tagged recombinant BCL-2, BCL-XL, MCL-1, BCL-W, or BCL2-A1 protein (1 nM each) were mixed with 100 nM Oregon Green™-labeled f-BAK peptide probe and 1 nM Tb-labeled anti-GST antibody were mixed. Then 10 µL of a 2× protein/probe/antibody mix was added to each well of increasing concentrations of test compound in assay buffer (20 mM potassium phosphate, pH 7.6, 50 mM NaCl, 1 mM ethylenediaminetetraacetic acid disodium salt dihydrate, 0.05% pluronic acid F-68, 1 mM DL-dithiothreitol) at room temperature (final concentrations listed in Supplementary Table S2). The samples were then mixed on a shaker for 1 min and incubated for an additional 1 h at room temperature. For each assay plate, a probe/antibody and protein/antibody/probe mixture were included as a negative and a positive control, respectively. Fluorescence was measured on the EnVision™ (Perkin Elmer) using a 340/35-nm excitation filter and 520/525- (F-Bak) and 495/510-nm (Tb-labeled anti-glutathione S-transferase [GST] antibody) emission filters. Dissociation constants were determined using Wang’s equation[35]. The time-resolved FRET assay can be performed in the presence of varying concentrations of human serum to determine apparent half-maximal inhibitory concentration after serum protein binding.
(§12) Supplementary Table S10: MCL-1 ortholog information and ABBV-467 affinity across species […]
(§13) Mouse Mus musculus Rattus Canis lupus Macaca sp.
(§14) Protein name Mcl1 Mcl1 M CL1 M CL1 […]
(§15) Amino acid sequence homology determined with NCBI BLAST (http://blast.ncbi.nlm.nih.gov). […]

rat Mcl1 = target: T2, rat Mcl1 (Rattus norvegicus, UniProt Q9Z1P3); test: TR-FRET binding assay, MCL-1 orthologs
T2 construct: made in house; host or cells: E. coli BL21(DE3)-T1R
Method: as §11, §12, §13, §14, §15

dog MCL1 = target: T3, dog MCL1 (Canis lupus familiaris, UniProt Q8HYS5); test: TR-FRET binding assay, MCL-1 orthologs; conditions: read-out: Ki, canine MCL-1
T3 construct: rhesus monkey (iso4, NM_001 1089 3 7, AA 171-327), dog (NM_001 0030 16, AA17 1- 327); made in house; host or cells: E. coli BL21(DE3)-T1R
Method: as §11, §12, §13, §14, §15

[4] = Conscious telemetry-instrumented dog cardiovascular safety pharmacology; assay type: in vivo; conditions: conscious beagle, IV, at 3-mg/kg dose
Text: as §1, §2, §3, §4, §5, §6, §7, §8, §9, §10

T3 sequence (Q8HYS5 171-327): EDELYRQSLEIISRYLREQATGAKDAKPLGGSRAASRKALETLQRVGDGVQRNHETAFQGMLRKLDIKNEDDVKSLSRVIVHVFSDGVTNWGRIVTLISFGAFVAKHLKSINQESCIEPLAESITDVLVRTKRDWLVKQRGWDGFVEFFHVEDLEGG
T2 sequence (Q9Z1P3 151-307): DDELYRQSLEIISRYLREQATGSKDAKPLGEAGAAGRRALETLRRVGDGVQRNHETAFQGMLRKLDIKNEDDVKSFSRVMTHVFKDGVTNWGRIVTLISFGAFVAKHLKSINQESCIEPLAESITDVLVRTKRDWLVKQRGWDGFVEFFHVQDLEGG
Sequence of Kv11.1 (hERG) (Q12809 whole entry): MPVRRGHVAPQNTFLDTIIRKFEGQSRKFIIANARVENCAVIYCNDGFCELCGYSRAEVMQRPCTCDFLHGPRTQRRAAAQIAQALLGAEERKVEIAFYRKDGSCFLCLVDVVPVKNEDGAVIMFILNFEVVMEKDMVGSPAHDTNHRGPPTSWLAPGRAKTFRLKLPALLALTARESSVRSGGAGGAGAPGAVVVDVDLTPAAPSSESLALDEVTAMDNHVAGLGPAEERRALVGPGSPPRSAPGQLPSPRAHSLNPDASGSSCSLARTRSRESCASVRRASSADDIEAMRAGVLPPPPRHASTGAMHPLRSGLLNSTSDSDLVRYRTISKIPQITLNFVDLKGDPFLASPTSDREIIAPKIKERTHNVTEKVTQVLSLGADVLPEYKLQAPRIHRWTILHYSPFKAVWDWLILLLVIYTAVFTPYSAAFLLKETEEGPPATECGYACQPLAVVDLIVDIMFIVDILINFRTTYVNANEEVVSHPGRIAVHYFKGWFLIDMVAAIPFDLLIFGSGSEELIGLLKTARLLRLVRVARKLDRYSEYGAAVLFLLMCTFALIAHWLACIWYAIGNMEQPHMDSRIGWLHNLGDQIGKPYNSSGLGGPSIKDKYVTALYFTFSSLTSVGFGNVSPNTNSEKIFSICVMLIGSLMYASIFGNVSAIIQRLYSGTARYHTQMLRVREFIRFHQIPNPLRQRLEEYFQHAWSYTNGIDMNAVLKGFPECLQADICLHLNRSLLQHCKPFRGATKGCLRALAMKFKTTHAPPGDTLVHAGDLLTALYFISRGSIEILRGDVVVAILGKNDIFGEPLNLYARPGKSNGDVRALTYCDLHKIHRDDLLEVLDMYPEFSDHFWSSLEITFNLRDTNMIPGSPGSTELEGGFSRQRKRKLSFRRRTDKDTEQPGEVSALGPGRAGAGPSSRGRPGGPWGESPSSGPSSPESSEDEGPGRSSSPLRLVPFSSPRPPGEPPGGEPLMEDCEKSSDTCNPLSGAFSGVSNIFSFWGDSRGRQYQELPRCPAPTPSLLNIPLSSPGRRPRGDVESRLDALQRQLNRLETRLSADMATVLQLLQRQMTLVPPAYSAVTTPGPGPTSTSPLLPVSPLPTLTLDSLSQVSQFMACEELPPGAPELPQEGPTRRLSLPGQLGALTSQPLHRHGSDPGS
T1 sequence (P97287 152-308): as the sequence (Q9Z1P3 151-307) above, with D1E, E3D, A26S, D71G, T81V, I111V, C116F, S123T counted along it

Cc1c(Cl)c2c(Cl)c(C)c1-c1c(-c3ccc(F)cc3)sc3ncnc(c13)O[C@@H](C(=O)O)Cc1cc(ccc1OCc1ccnc(-c3ccc(OC[C@H]4COCCO4)cc3)n1)OC[C@@H](CN1CCN(C)CC1)O2 [ABBV-467]
plasma concentration up to which no effects on blood pressure, heart rate, contractility, systemic vascular resistance, cardiac output, QTcV, QRS, PR interval [1]: 16 .83 µg/mL
mortality ([2]; beagle dog, 10 mg/kg after 1 or 2 doses (days 3–10)): Mortality
reversibility of toxicities ([2]; dogs, after a 4-week recovery period): partially or fully reversible
primary target organs of apoptosis/single-cell necrosis ([2]; dogs, once-weekly dosing): pancreas, liver, gastrointestinal tract, and the hematopoietic system
impact on cardiovascular endpoints (anatomic, clinical pathology, and/or function) ([2]; multidose GLP toxicity study, dogs): No direct impact
impact on cardiovascular endpoints (anatomic, clinical pathology, and/or function) ([3]; multidose GLP toxicity study): No direct impact
reversibility of toxicities ([3]; after a 4-week recovery period): partially or fully reversible
primary target organs of apoptosis/single-cell necrosis ([3]; once-weekly dosing): pancreas, liver, gastrointestinal tract, and the hematopoietic system
IC50 (Kv11.1 (hERG)): > 30000 nM
affinity for the murine mcl1 (mouse Mcl1): substantially reduced affinity
Ki (rat Mcl1): < 0.1 nM
Ki (dog MCL1): < 0.1 nM
plasma concentration with no effects on blood pressure, heart rate, or ECG parameters [4]: 6530 ng/mL
